One may read the chromatographic logP as a lipophilicity value derived from retention on a column. Low readings indicate lower lipophilicity, high ones higher lipophilicity.

The results in this text go back to patent US20190218188A1, “NOVEL 5-SUBSTITUTED IMIDAZOLE DERIVATIVES” (Bayer CropScience Aktiengesellschaft, priority 2016, published 2019).

SMILES strings stand for the structures.

The series in a line: Log P by HPLC on reversed phase columns (EEC directive 79/831 Annex V.A8). Type of series: physicochemical. The conditions noted are these: reversed phase HPLC column; method [a]: LC-UV, acidic range, 0.1% formic acid in water and acetonitrile as eluent (linear gradient 10% to 95% acetonitrile). The method, then: Measurement of Log P values was performed according to EEC directive 79/831 Annex V.A8 by HPLC (High Performance Liquid Chromatography) on reversed phase columns with the following methods: • ^[a] Log P value is determined by measurement of LC-UV, in an acidic range, with 0.1% formic acid in water and acetonitrile as eluent (linear gradient from 10% acetonitrile to 95% acetonitrile). • ^[b] Log P value is determined by measurement of LC-UV, in a neutral range, with 0.001 molar ammonium acetate solution in water and acetonitrile as eluent (linear gradient from 10% acetonitrile to 95% acetonitrile). • ^[c] Log P value is determined by measurement of LC-UV, in an acidic range, with 0.1% phosphoric acid and acetonitrile as eluent (linear gradient from 10% acetonitrile to 95% acetonitrile). If more than one Log P value is available within the same method, all the values are given and separated by “+”. Calibration was done with straight-chain alkan2-ones (with 3 to 16 carbon atoms) with known Log P values (measurement of Log P values using retention times with linear interpolation between successive alkanones).

For the molecule `N#Cc1cncn1CC(F)(Cc1cccc(F)c1F)C1(Cl)CC1` (centres unmarked) [Example I-01, 1-[2-(1-chlorocyclopropyl)-3-(2,3-difluorophenyl)-2-fluorpropyl]-1H-imidazole-5-carbonitrile], the chromatographic logP stood at 2.98. The figure for `N#Cc1cncn1CC(Cl)(Cc1cccc(F)c1F)C1(Cl)CC1` (centres unmarked) [Example I-02, 1-[2-chloro-2-(1-chlorocyclopropyl)-3-(2,3-difluorophenyl)propyl]-1H-imidazole-5-carbonitrile] is 3.25.
